These results are taken from ChEMBL document CHEMBL3046366, “Inhibitory effect of curcumin analogs on tissue factor procoagulant activity and their preliminary structureactivity relationships” (Med Chem Res, 2013).

Usually IC50 stands for the concentration at which inhibition is half-maximal.

The first test deals with T1, Tissue factor (Homo sapiens, UniProt P13726). Briefly: Inhibition of tissue factor in Homo sapiens (human) THP1-cells using factor 10a chromogenic substrate assessed as inhibition of LPS-iduced procoagulant activity incubated for 1 hr prior to LPS-challenge measured after 5 hr by spectrophotometric analysis. The format is cell-based. The conditions noted are these: thp-1.
T1 sequence (P13726 whole entry): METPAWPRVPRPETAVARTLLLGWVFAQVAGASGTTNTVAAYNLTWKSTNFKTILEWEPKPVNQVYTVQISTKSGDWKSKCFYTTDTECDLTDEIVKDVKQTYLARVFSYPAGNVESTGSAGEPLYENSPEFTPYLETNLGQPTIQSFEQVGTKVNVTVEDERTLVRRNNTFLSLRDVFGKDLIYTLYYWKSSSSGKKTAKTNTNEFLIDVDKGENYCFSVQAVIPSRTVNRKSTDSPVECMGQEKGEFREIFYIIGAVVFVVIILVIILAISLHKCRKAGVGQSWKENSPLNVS
With `O=C(/C=C/c1ccc(O)cc1)c1ccc(O)cc1` [4,4'-DIHYDROXYCHALCONE], the concentration for half-maximal inhibition (IC50) stood at 0.96 nM. Same read-out and setting: next, `COc1ccc(C(=O)/C=C/c2ccc(O)cc2)cc1`: 142 nM. On the same count and under the same terms, next, `COc1cc(/C=C/C(=O)/C=C/c2ccc(O)c(OC)c2)ccc1O`: above 200 nM; `COc1ccc(/C=C/C(=O)/C=C/c2ccc(OC)cc2)cc1`: 13.4 nM; `O=C(/C=C/c1ccc(O)cc1)/C=C/c1ccc(O)cc1`: 2.58 nM. On the same count and under the same terms, in the case of `O=C(/C=C/c1ccccc1)/C=C/c1ccccc1` it was 0.053 nM. Turning to `COc1ccc(/C=C/C(=O)c2ccc(OC)cc2)cc1` [4,4'-DIMETHOXYCHALCONE], the IC50 stood at 15.4 nM. On the same count and under the same terms, in the case of `O=C(/C=C/c1ccccc1)c1ccc(O)cc1` [4'-HYDROXYCHALCONE] it was 0.12 nM. In the case of `O=C1/C(=C/c2ccccc2)CCC/C1=C\c1ccccc1` [2,6-DIBENZYLIDENECYCLOHEXANONE], the IC50 amounted to 0.26 nM. On the same count and under the same terms, in the case of `COc1cc(/C=C2\CCC/C(=C\c3ccc(O)c(OC)c3)C2=O)ccc1O` [CYCLOVALONE] it was above 200 nM; in that of `O=C1/C(=C/c2ccc(O)cc2)CCC/C1=C\c1ccc(O)cc1`, 0.94 nM. With `COc1ccc(/C=C2\CCC/C(=C\c3ccc(OC)cc3)C2=O)cc1`, the IC50 is above 200 nM.

The target in another test is T1, Tissue factor. Briefly: Ratio of curcumin IC50 to compound IC50 for tissue factor in LPS-induced Homo sapiens (human) THP1 cells. The conditions noted are these: THP-1. The format is cell-based.
On to `O=C(/C=C/c1ccccc1)/C=C/c1ccccc1`, for which the Ratio IC50 came out at 10000.

Turning to `O=C(/C=C/c1ccccc1)c1ccc(O)cc1` [4'-HYDROXYCHALCONE], the Ratio IC50 came out at 10000.

Target in the next test: not listed separately
Briefly: Inhibition of tissue factor in Homo sapiens (human) THP1-cells using factor 10a chromogenic substrate assessed as inhibition of LPS-iduced procoagulant activity incubated for 1 hr prior to LPS-challenge measured after 5 hr by spectrophotometric analysis. The conditions noted are these: thp-1.
In the case of `COc1cc(/C=C/C(=O)CC(=O)/C=C/c2ccc(O)c(OC)c2)ccc1O` [CURCUMIN], the concentration for half-maximal inhibition (IC50) is 200 nM.
